Values joined by “and” are separate entries in the source; they are usually repeats but may differ in a detail not shown here. Identical values can stand only once.

The subject of data set [1] is Staphylococcus aureus ATCC 25923. Nature of the data set: Microdilution broth susceptibility test, S. aureus reference strain. The conditions noted are these: for activity at 100 µM: read-out: S. aureus microbial growth. As for the experimental part:
The in vitro antimicrobial activity of the isatin derivatives was evaluated by a microdilution broth method in accordance with the guidelines provided by a number of international committees, such as The Clinical Laboratory Standards Institute (CLSI) in the U.S. or The European Committee on Antimicrobial Susceptibility Testing (EUCAST) in Europe reference bacterial strains, including Staphylococcus aureus (ATCC 25923) and Escherichia coli (ATCC 25922) and Candida albicans (ATCC 10231), were purchased from the American Type Culture Collection (ATCC); they were routinely cultured in 5% sheep blood agar plate and in Sabauraud dextrose agar, respectively, at 37 °C. Clinical isolates, identified by MALDI-TOF MS (Bruker Daltonik, GmbH, Bremen, Germany), were profiled for their antibiotic susceptibility by using the Vitek2 semiautomated system (bioMerieux, Craponne, France) and according to EUCAST guidelines [EUCAST: The European Committee on Antimicrobial Susceptibility Testing. Breakpoint tables for interpretation of MICs and zone diameters. Version 12, 2022, http://www.eucast.org (accessed on 1 January 2022)].
Microbial inocula were prepared at 0.5 McFarland in PBS and, subsequently, bacterial suspensions were diluted 1:200 in Mueller–Hinton broth (Sigma-Aldrich, St. Louis, MO, USA), while fungal inoculum was diluted 1:20 in RPMI-1640 medium (Gibco®, ThermoFisher Scientific Inc., Waltham, MA, USA), containing glucose 2%, 0.3% levo-glutamine buffered to pH 7.0 with 0.165 M 3-(N-morpholino)propanesulfonic acid (MOPS). A total of 100 µL of these microbial suspensions were introduced in a 96-well microplate and treated with 100 µL of the compound at 100 µM or with two-fold serial dilutions of the compound in the range of 400 µM–3.12 µM. All compounds were previously dissolved in 100% DMSO at a concentration of 20 mM. Experiments included controls used to measure the microbial growth in regular medium (positive control) and to check the background turbidity of the reagents and the sterility of the procedures (negative controls). In addition, microbial growths were assessed in the presence of the DMSO solvent in the range of 0.015–2%. The inoculated plate was incubated at 37 °C for 24 h, and subsequently, the optical density at 630 nm was measured by the Multiskan Ascent microplate reader (Thermo Fisher Scientific Inc., Waltham, MA, USA). […] All the experiments were performed on triplicate in at least two independent assays.
On the technique in general: Broth dilution looks for growth in wells or tubes with falling amounts of substance.

Data set [2] relates to Escherichia coli ATCC 25922. Nature of the data set: Microdilution broth susceptibility test, E. coli reference strain. Type of data set: cell-based. The conditions noted are these: ATCC25922, 24 h, growth as percentage relative to positive growth control, mean ± SD, read-out: E. coli microbial growth. From the text:
(§1) Breakpoint tables for interpretation of MICs and zone diameters.

Data set [3] concerns Candida albicans ATCC 10231. Nature of the data set: Microdilution broth susceptibility test, C. albicans reference strain. In kind it is cell-based. To be noted: for activity at 100 µM: Candida albicans, ATCC10231, 24 h, growth as percentage relative to positive growth control, mean ± SD, read-out: C. albicans microbial growth.
Source text: as §1

The subject of the next data set is Vero cells (ATCC CCL-81). Nature of the data set: Cytotoxicity test, WST8-based CCK-8 cell viability. To be noted: 100 µM; for Vero cell proliferation: 48 h, cell viability as percentage relative to untreated controls, mean ± SD. More on the design: species or system African green monkey; Vero cell proliferation: unit: %. As for the experimental part: African green monkey kidney cells (Vero ATCC CCL-81) obtained from ATCC were cultured in Eagle’s minimal essential medium (MEM) (Sigma-Aldrich, St. Louis, MO, USA), supplemented with 10% fetal bovine serum (FBS) (Carlo Erba Reagents, Milan, Italy), 100 U/mL penicillin, and 100 µg/mL streptomycin at 37 °C with 5% CO2. For the experiments, the cells were seeded into 96-well plates at 10^4 cells/well and incubated at 37 °C for 24 h. Following washes with PBS, the cell monolayer was incubated with 100 µL of medium containing 100 µM of the derivatives. Both untreated cells and cells incubated with the solvent were included in each experiment as controls. The cell viability was assessed by a WST8-based assay according to the manufacturer’s instructions (CCK-8, Cell Counting Kit-8, Dojindo Molecular Technologies, Rockville, MD, USA). After 48 h of incubation, the culture medium was removed from each well, the monolayer was washed with PBS, and 100 µL of fresh medium containing 10 µL of CCK-8 solution were added. Following 2 h at 37 °C, the absorbance was measured at 450/630 nm; data were calculated as the percentage of the cell viability relative to the untreated controls.
A general note: Tetrazolium assays rely on reduction of a dye to a coloured formazan, in cell work by metabolically active cells.

In data set [4] the test system is S. aureus clinical isolates (MSSA and MRSA). In words: Microdilution broth susceptibility test, S. aureus clinical isolates. Type of data set: cell-based. The conditions noted are these: Staphylococcus aureus, 10 clinical isolates, read-out: IC50 against S. aureus clinical isolates (range over isolates).
Source text: as §1

Where [5] appears, read: Staphylococcus aureus, ATCC25923, 24 h.

With `Cc1cc(C)c2c(c1)NC(=O)C2(C1CNc2ccccc21)C1CNc2ccccc21` (stereo not shown) [4e, 4′,6′-dimethyl-[3,3′:3′,3″-terindolin]-2′-one], the activity at 100 µM turned out to be 71.2 ± 8.7% in data set [1] (setting [5]), 103 ± 1.4% in data set [2] and 68.8 ± 2.7% in data set [3]. Besides, the “Cytotoxicity on Vero cells in words” value in the data set with Vero cells (ATCC CCL-81) is listed as “affect Vero cells proliferation”. In the data set on Vero cells (ATCC CCL-81), this compound had a Vero cell proliferation of 8.5 ± 0.3.
In the same order, the values of `O=C1Nc2c(Cl)ccc(Cl)c2C1(C1CNc2ccccc21)C1CNc2ccccc21` (stereo not shown) [4f, 4′,7′-dichloro-[3,3′:3′,3″-terindolin]-2′-one] are 75.8 ± 1.8%, 96.9 ± 1.7%, 107 ± 4.2%, “affect Vero cells proliferation” and 9.8 ± 0.5.
For the compound `COc1ccc(CN2C(=O)C(C3CNc4ccccc43)(C3CNc4ccccc43)c3cc(OC)ccc32)cc1` (stereo not shown) [4g, 5′-methoxy-1′-(4-methoxybenzyl)-[3,3′:3′,3″-terindolin]-2′-one], the activity at 100 µM in data set [1] (setting [5]) was 86.2 ± 5.7%; in data set [2] it was 100.3 ± 0.7%; in data set [3], 50.6 ± 6.6%. This compound displayed a Vero cell proliferation with Vero cells (ATCC CCL-81) of 107.9 ± 8.9.
Consider `O=C1Nc2cccc(I)c2C1(C1CNc2ccccc21)C1CNc2ccccc21` (stereo not shown) [4h, 4′-iodo-[3,3′:3′,3″-terindolin]-2′-one], for which the activity at 100 µM amounted to 72.8 ± 6.1% in data set [1] (setting [5]), 82 ± 1.5% in data set [2] and 23.2 ± 2.1% in data set [3]. In addition, the “Antifungal activity against C. albicans in words” value in data set [3] (100 µM (48.93 µg/mL)) was “significantly reduced the growth of C. albicans”. Besides, the “Cytotoxicity on Vero cells in words” value with Vero cells (ATCC CCL-81) is given as “affect Vero cells proliferation”. For the same compound, the Vero cell proliferation with Vero cells (ATCC CCL-81) is recorded as 10.6 ± 0.3.
Regarding `O=C1Nc2cc(OC(F)(F)F)ccc2C1(C1CNc2ccccc21)C1CNc2ccccc21` (stereo not shown) [4l, 6′-(trifluoromethoxy)-[3,3′:3′,3″-terindolin]-2′-one], the activity at 100 µM in data set [1] (setting [5]) is 72 ± 2.2%; in data set [2], 103 ± 1.6%; in data set [3] it was 93.3 ± 2.1%. In the data set with Vero cells (ATCC CCL-81), this compound came in with a Vero cell proliferation of 8.9 ±0.4.
In the same order, the values of `COc1ccc2c(c1)C(C1(C3CNc4ccc(OC)cc43)C(=O)Nc3cc(OC)c(OC)c(OC)c31)CN2` (stereo not shown) [5d, 4′,5,5′,5″,6′-pentamethoxy-[3,3′:3′,3″-terindolin]-2′-one] are 89.1 ± 7%, 117 ± 1.1%, 120 ± 2% and 54.3 ± 0.9.
The matching figures for `COc1ccc2c(c1)C(C1(C3CNc4ccc(OC)cc43)C(=O)N(Cc3ccc(Cl)cc3)c3ccccc31)CN2` (stereo not shown) [5m, 1′-(4-chlorobenzyl)-5,5″-dimethoxy-[3,3′:3′,3″-terindolin]-2′-one]: 95.1 ± 3.9%, 113 ± 0.6%, 88.2 ± 5.2% and 87.0 ± 5.7.
For `O=C1Nc2ccccc2C1(c1c(Cl)nc2sccn12)c1c(Cl)nc2sccn12` [6c, 3,3-bis(6-chloroimidazo[2,1-b]thiazol-5-yl)indolin-2-one], the activity at 100 µM is 95.4 ± 2.4% in data set [1] (setting [5]), 117 ± 3.1% in data set [2] and 126 ± 2.1% in data set [3]. Besides, in the data set on Vero cells (ATCC CCL-81), the Vero cell proliferation amounted to 92.8 ± 4.8.
Take `COc1ccc(CN2C(=O)C(c3c(Cl)nc4sccn34)(c3c(Cl)nc4sccn34)c3cc(OC)ccc32)cc1` [6g, 3,3-bis(6-chloroimidazo[2,1-b]thiazol-5-yl)-5-methoxy-1-(4-methoxybenzyl)indolin-2-one]: the values for the activity at 100 µM in data set [1] (setting [5]), in data set [2] and in data set [3] were 67.4 ± 8.4%, 73.6 ± 9.1% and 92.4 ± 3.6%, respectively. In the data set with Vero cells (ATCC CCL-81), this compound returned a Vero cell proliferation of 84.3 ± 0.9.
The IC50 is the concentration at which inhibition is half-maximal. In the case of `COc1ccc2c(c1)C(c1c(Cl)nc3sccn13)(c1c(Cl)nc3sccn13)C(=O)N2` [6k, 3,3-bis(6-chloroimidazo[2,1-b]thiazol-5-yl)-5-methoxyindolin-2-one], the “Activity against S. aureus in words” value in data set [1] (100 µM) is “highly active”. Besides, in data set [1] (400 µM), the “Efficacy at the highest tested concentration in words” value is listed as “completely inhibit bacterial growth”. For the same compound, in data set [1] (S. aureus growth compared with Vero cytotoxicity at 100 µM), the “Selectivity of antibacterial activity versus cytotoxicity in words” value is given as “selective inhibitory property against the Gram-positive strain”. Also, the IC50 is 39.1 µg/mL and 80 µM in data set [1] (Staphylococcus aureus, ATCC25923, 24 h, read-out: IC50 against S. aureus); 73 to 85.3 µM in data set [4]. Also, the activity at 100 µM in data set [1] (setting [5]) is 43.4 ± 5.6%; in data set [2], 103 ± 2.4%; in data set [3], 104 ± 1.9%. The compound also gave a Vero cell proliferation in the data set with Vero cells (ATCC CCL-81) of 70.9 ± 5.6.

The record behind these values is PMC9505023, “Isatin Bis-Indole and Bis-Imidazothiazole Hybrids: Synthesis and Antimicrobial Activity” (Molecules, 2022).
